# Experimental data as given in BindingDB's records for patent US20240308995 (Biogen Ma, 2024).
# pIC50: −log10 of the molar value.
# Target: T1, Protein O-GlcNAcase (Homo sapiens, UniProt O60502)
# T1 sequence (O60502 whole entry): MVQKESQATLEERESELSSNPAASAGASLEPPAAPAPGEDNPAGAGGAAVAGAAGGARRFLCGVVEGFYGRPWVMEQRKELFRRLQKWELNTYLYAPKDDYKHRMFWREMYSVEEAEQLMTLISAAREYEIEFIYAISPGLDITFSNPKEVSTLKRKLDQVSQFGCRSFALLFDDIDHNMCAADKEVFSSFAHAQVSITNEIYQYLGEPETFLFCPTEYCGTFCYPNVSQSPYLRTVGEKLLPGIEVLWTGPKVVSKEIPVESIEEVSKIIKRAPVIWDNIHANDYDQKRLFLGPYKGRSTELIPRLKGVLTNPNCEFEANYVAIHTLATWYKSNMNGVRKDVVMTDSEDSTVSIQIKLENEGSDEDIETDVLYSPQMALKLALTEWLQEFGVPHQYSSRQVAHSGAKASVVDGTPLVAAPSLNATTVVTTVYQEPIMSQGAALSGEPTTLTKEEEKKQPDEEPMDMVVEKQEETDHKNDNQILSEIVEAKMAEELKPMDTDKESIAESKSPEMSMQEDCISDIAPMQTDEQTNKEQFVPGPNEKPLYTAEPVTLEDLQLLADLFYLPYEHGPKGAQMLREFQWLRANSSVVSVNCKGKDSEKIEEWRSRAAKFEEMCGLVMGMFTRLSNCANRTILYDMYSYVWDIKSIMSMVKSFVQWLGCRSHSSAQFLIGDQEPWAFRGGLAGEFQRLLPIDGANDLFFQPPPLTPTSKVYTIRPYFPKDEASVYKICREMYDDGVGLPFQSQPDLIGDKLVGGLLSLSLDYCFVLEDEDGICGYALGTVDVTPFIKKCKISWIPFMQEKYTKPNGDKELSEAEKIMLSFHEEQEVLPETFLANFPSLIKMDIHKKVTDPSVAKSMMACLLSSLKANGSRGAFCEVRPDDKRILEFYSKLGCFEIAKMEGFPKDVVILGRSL
# Assay: Enzyme Inhibition Biochemical Assay
# Method: Recombinant full length human OGA enzyme was purchased from Origene. 4-MUGlcNAc substrate was purchased from Sigma. All other reagents were purchased from Sigma or Fisher. Assay buffer consists of the McIlvaine buffer system, pH 6.4 (0.2M Na2HPO4 mixed with 0.1M citric acid) and 0.01% BSA. […] Reactions were incubated for 90 minutes at room temperature and quenched with 40 μl of 3M glycine, pH 10 and read on a Perkin Elmer Envision plate reader (Ex: 355 nm/Em: 460 nm). Compounds were tested with a 10-point dose-response starting from 20 μM with a 4-fold dilution. Data was fit using GraphPad Prism using a 4-parameter fit with variable slope.
smiles,measurement,value
"CC(=O)Nc1ncc(CN2C[C@H](Oc3cc(=O)n(C)cn3)C[C@@H]2C)s1 [US20240308995, Example 1-70]",pIC50,> 9.00
